“Also recorded” adds a separate entry of the source. Like-named read-outs stand apart in the source and are kept apart here.
Tests used:
Format in all cases: cell-based
[1] = tested on: MCF-10A human mammary epithelial (non-cancer) cells; experiment: Effect on intact cells in culture (growth, morphology, DAPI)
[2] = tested on: BT-20 human mammary adenocarcinoma cells; experiment: as above
Protocol: BT-20 human breast adenocarcinoma cells were cultured in Eagle's minimal essential medium nonessential amino acids and Earle's balanced salts supplement with 10% fetal bovine serum. Media were renewed as for MCF-10A cells. […] The coverslips were rinsed and the cells fixed in methanol followed by addition of fluorescent dye 4′,6-diamidino-2-phenylindole (DAPI) as described (Wolvetang et al., 1994, FEBS Lett. 339:40-44). Cells were observed and photographed at a primary magnification of 400×.

[3] = tested on: HeLa (human cervical carcinoma) cells; experiment: as above; settings: for IC50: read-out: EGCg concentration for 50% growth arrest, FIG. 8
Protocol: HeLa (ATCC CCL2) cells were grown in 175 cm^2 flasks in Minimal Essential Medium (Gibco), pH 7.4, at 37° C. with 10% bovine calf serum (heat-inactivated), plus 50 mg/l gentamycin sulfate (Sigma). […] The coverslips were rinsed and the cells fixed in methanol followed by addition of fluorescent dye 4′,6-diamidino-2-phenylindole (DAPI) as described (Wolvetang et al., 1994, FEBS Lett. 339:40-44). Cells were observed and photographed at a primary magnification of 400×. HeLa (ATCC CCL2) cells were grown in 150 cm^2 flasks in Minimal Essential Medium (Gibco), pH 7.4, at 37° C. with 10% bovine calf serum (heat-inactivated), plus 50 mg/l gentamicin sulfate (Sigma).

[4] = tested on: 4T1 metastatic mouse mammary cancer cells; experiment: Killing of 4T1 metastatic mouse mammary cancer cells in culture; settings: EGCg 10^−7 M, EC 10^−4 M, alone or combined
[5] = biological target: T1, tNOX activity of HeLa S cells (Homo sapiens, UniProt Q16206); experiment: NADH oxidase of intact HeLa (HeLa S) cells
T1 construct: Response of the NADH oxidase of HeLa S cells to (−)-epigallocatechin gallate (EGCg) alone; endogenous in cells; methods say ATCC CCL2
T1 sequence (Q16206 1-610): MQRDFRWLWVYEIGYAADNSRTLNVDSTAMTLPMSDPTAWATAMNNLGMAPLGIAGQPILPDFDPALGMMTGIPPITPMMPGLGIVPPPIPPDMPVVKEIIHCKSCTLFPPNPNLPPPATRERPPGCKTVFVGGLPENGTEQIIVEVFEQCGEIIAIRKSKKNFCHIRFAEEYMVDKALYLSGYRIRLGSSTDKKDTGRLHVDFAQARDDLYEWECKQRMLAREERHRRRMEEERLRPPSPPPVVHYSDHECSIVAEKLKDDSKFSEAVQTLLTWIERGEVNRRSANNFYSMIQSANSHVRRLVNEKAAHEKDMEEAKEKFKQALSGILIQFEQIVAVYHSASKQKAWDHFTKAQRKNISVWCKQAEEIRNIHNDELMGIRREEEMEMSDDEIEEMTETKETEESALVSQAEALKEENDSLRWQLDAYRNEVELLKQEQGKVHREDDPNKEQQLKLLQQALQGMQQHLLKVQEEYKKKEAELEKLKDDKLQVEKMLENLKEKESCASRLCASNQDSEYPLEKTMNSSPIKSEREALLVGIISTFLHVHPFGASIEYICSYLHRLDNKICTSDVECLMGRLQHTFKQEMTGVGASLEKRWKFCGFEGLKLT
Protocol: HeLa (ATCC CCL2) cells were grown in 150 cm^2 flasks in Minimal Essential Medium (Gibco), pH 7.4, at 37° C. with 10% bovine calf serum (heat-inactivated), plus 50 mg/l gentamicin sulfate (Sigma). Cells were trypsinized with Sigma IX trypsin for 1 to 2 min and harvested by scraping and taken up in 140 mM NaCl, 5 mM KCl, 0.7 mM Na2HPO4 and 25 mM Tris, pH 7.4, to a final cell concentration of 0.1 g wet weight (gww) per ml.
NADH oxidase activity was determined as the disappearance of NADH measured at 340 nm in a reaction mixture containing 25 mM Tris-Mes buffer (pH 7.2), 1 mM KCN, and 150 μM NADH at 37° C. Activity was measured using a Hitachi U3210 spectrophotometer with stirring and continuous recording over two intervals of 5 min each. A millimolar extinction coefficient of 6.22 was used to determine specific activity.

[6] = 10 μM EGCg added at t=0, 96 h, FIG. 4
[7] = 10^−6 M EGCg twice daily for 96 h

## (−) - epigallocatechin gallate [EGCg]
[1]; [6]
  Fate of treated cells: quickly recovered and eventually grew normally; also recorded: recovered fully
[1]; [7]
  Growth rate and cell diameters: unaffected or slightly increased
[1]; 10^−6 M EGCg, 72 h
  Response of the cell line: no response
[1]; EGCg, unaffected except at very high doses of 10^−4 M, FIG. 2C
  Growth of cells: unaffected; also recorded: much less affected
[2]; [6]
  Fate of treated cells: did not recover and died; also recorded: stopped growing and died
[2]; [7]
  Reduction of cell diameter: about 25%
  Reduction of cell number: about 25%
  Reduction of cell volume: 50%
[2]; 10^−6 M EGCg, 72 h
  Response of the cell line: no response
[2]; 10 or 50 μM EGCg, 96 h, FIG. 5
  Condensed chromatin (DAPI staining): characteristic of apoptosis
[3]; [6]
  Fate of treated cells: did not recover and died; also recorded: stopped growing and died
[3]; [7]
  Reduction of cell diameter: about 25%
  Reduction of cell number: about 25%
  Reduction of cell volume: 50%
[3]; 10^−6 M EGCg, 72 h
  Response of the cell line: no response
[3]; 10 or 50 μM EGCg, 96 h, FIG. 5
  Condensed chromatin (DAPI staining): characteristic of apoptosis
[3]; EGCg
  Growth of HeLa cells: almost completely inhibited
[3]; 72 h, in the absence of EC
  IC50: 10 µM
[3]; 72 h, in the presence of 10^−4 M EC
  IC50: 0.1 µM
[4]
  Increase in cell number cm^−2 over 72 h · 10^2: 520 cm^−2 · 10^2
[5]
  EGCg concentration at which NOX activity was stimulated: ≥ 10^−5 M
[5]; EGCg alone, FIG. 12
  EGCg concentration for maximal inhibition of tNOX activity: 0.1 µM
